{
  "source": "patent US20230190947A1",
  "about": "“Hemoglobin-Targeted Drug Delivery For The Treatment of Cancer” (Therapure Biopharma Inc., priority 2016, published 2023)",
  "key": {"human colon cancer": {"tested_on": "human colon cancer", "assay": "Human colon cancer model: mice orthotopically implanted with GFP-transfected colon cancer tumor fragments", "assay_type": "in vivo", "procedure": "A study testing Hb-FUdR in mice orthotopically implanted with tumor fragments derived from colon cancer cells (transfected with green fluorescence protein for in-life tumor visualization was conducted as follows:\n(§1) Study design: Fifty (50) tumor-bearing mice were randomly divided into five groups with ten (10) mice per group. Animals (10 mice per group) were treated with Hb-FUdR at 6, 32, and 161 mg Hb/kg (0.15, 0.74, and 3.7 mg FUdR/kg) twice weekly via intravenous injection (tail vein) at 5 mL/kg. Control untreated animals were treated with PBS at 5 mL/kg. Control FUdR treated animals were treated with 3.7 mg FUdR/kg. Study endpoint: The study was terminated 47 days post tumor inoculation. All remaining mice in each group were sacrificed at this time point. All animals in the PBS treated group and approximately 50% of animals in other treated groups died before the study endpoint. Therefore, survival time between groups was considered one of the criteria to assess the efficacy of the test agents. Primary tumors were excised and weighted at necropsy for subsequent analysis.\nThe anti-tumor efficacy of Hb-FUdR against the implanted human colon cancer was evaluated by comparing the primary tumor sizes measured twenty-one days after treatment initiation, and the differences in survival time between the Hb-FUdR treated and PBS control groups."}, "[1]": {"set-up": "species or system mice", "conditions": "mouse, in vivo", "procedure": "as §1\n[…]. […] Other symptoms of related toxicity were absent by gross observation."}, "HCC": {"tested_on": "HCC", "conditions": "SHARP trial; vs. 7.9 months; cited from earlier work"}, "[2]": {"conditions": "Hb 0 mg/kg, FUdR 3.7 mg/kg (free drug), 9 mice evaluated"}},
  "data": [
    {"smiles": "O=c1[nH]c(=O)n([C@H]2C[C@H](O)[C@@H](CO)O2)cc1F", "note": "[FUdR, floxuridine]", "values": [
      {"measurement": "No. of mice with L.N. met.", "setting": "human colon cancer; [2]", "value": 6},
      {"measurement": "No. of mice with liver met.", "setting": "human colon cancer; [2]", "value": 4},
      {"measurement": "Mean survival time", "setting": "human colon cancer; Hb 0 mg/kg, FUdR 3.7 mg/kg (free drug), study terminated 47 days post tumor inoculation", "value": 43.9, "unit": "days"},
      {"measurement": "Average tumor volume", "setting": "human colon cancer; Hb 0 mg/kg, FUdR 3.7 mg/kg (free drug), twenty-one days after treatment initiation", "value": "254.58 ± 196.74", "unit": "mm^3"},
      {"measurement": "Survival time of the treated mice", "setting": "human colon cancer; summary statement", "value": "significantly prolonged survival time"},
      {"measurement": "Toxicity", "setting": "[1]", "value": "without obvious toxicity"}
    ]},
    {"smiles": "CNC(=O)c1cc(Oc2ccc(NC(=O)Nc3ccc(Cl)c(C(F)(F)F)c3)cc2)ccn1", "note": "[Sorafenib]", "values": [
      {"measurement": "Overall survival", "setting": "HCC", "value": 10.7, "unit": "months"}
    ]}
  ]
}
